Reference: patent publication US12522562B2, “Intestine-specific partial agonists of farnesoid X receptor and uses thereof” (EWHA DrugDesignHouse Co., Ltd., priority 2022, dated 2026)
Where two headings read alike, the source gives them in different places.

Tests used:
FXR = target: T1, FXR (Homo sapiens, UniProt Q96RI1); test: PathHunter NHR protein interaction assay, agonist mode (FXR)
T1 sequence (Q96RI1 1-486): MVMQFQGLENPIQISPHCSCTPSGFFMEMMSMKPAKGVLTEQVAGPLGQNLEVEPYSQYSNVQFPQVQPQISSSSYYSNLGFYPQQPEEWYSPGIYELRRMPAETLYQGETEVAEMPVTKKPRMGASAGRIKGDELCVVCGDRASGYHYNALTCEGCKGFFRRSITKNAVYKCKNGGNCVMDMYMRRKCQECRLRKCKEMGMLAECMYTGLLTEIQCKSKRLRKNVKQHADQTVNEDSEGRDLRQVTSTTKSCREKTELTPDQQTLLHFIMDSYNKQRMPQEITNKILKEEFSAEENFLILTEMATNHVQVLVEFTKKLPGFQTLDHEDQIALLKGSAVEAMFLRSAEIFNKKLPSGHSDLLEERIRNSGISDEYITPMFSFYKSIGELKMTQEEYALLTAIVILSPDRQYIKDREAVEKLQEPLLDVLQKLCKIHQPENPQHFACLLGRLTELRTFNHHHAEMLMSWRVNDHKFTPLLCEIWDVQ
Procedure: PathHunter® CHO-K1 FXR protein interaction cells were expanded from freezer stocks according to standard procedures. Cells were seeded in a total volume of 20 μL into white walled, 384-well microplates and incubated at 37° C. for the appropriate time prior to testing. Assay media contained charcoal-dextran filtered serum to reduce the level of hormones present. For agonist determination, cells were incubated with sample to induce response. […] For antagonist determination, cells were pre-incubated with antagonist followed by agonist challenge at the EC80 concentration. […] Microplates were read following signal generation with a PerkinElmer Envision™ instrument for chemiluminescent signal detection. Compound activity was analyzed using CBIS data analysis suite (ChemInnovation, CA). For agonist mode assays, percentage activity was calculated using the following formula: % Activity=100%×(mean RLU of test sample−mean RLU of vehicle control)/(mean MAX control ligand−mean RLU of vehicle control).
In this assay, two weakly complementing fragments of the β-galactosidase are expressed within stably transfected cells. The complementing fragments of the β-galactosidase are translationally fused to the C-terminus of a full-length FXR and to the steroid receptor coactivator peptide (SRCP), respectively. When bound by ligand, the FXR will migrate to the nucleus and recruit the SRCP domain, whereby complementation occurs, generating a unit of active β-galactosidase and production of chemiluminescent signal. Thus, measurement of chemiluminescent signal directly reflects FXR-coactivator interaction.

[1] = Pharmacokinetic studies of Example 11 in rats; type: in vivo, Sprague-Dawley rats
Procedure: To investigate whether Example 11 is indeed an intestine-selective/specific FXR agonist, its pharmacokinetic profile was evaluated. Male Sprague-Dawley rats (7-week old, 240-260 g) were purchased from Orient Bio. Inc. (Seongnam, Korea). Rats were kept in the cage maintained under a controlled environment (temperature of 23±3° C., relative humidity of 50±5%, and 12 h dark-light cycle) for at least 3 days. Rats were fasted overnight before dose administration. The Example 11 was dissolved in a mixture of DMSO, Tween 80, and 0.9% saline solution (v:v:v, 1:1:8) at a concentration of 2.5 mg/mL for intravenous injection (IV). Also, Example 11 was dissolved in corn oil for oral administration (PO). Rats were divided into two groups; IV group and PO group including at least 6 animals per group. After anesthetized with isoflurane, rats were given the dose of 5 mg/kg via IV injection or 80 mg/kg via PO administration by oral gavage into the stomach. Blood samples (approximately 0.25 mL) were obtained by subclavian vein puncture at 0, 0.033, 0.083, 0.167, 0.333, 0.667, 1, 2, 3, 5, 7, 10, and 24 h after IV injection. After PO administration, blood samples were obtained at 0, 0.083, 0.167, 0.333, 0.667, 1, 2, 3, 5, 7, 10, and 24 h post-dose. Subsequently, blood samples were collected in 1.5-mL Eppendorf tube on an ice. The tubes were centrifuged at 13500 rpm for 15 min at 4° C. to separate the plasma fraction. Then, the plasma samples were stored at […] until HPLC analysis. To prepare the samples for HPLC analysis, 5 μL of Example 11 or Example 24 and 5 μL of internal standard, Example 4 were added to 45 μL of plasma. For extraction, 45 μL of MeCN was added to the mixture. Then, the mixture was vortexed for 2 min and centrifuged at 13500 rpm for 15 min at room temperature. The 60 μL of clear supernatant was transferred to an insert. Then, the HPLC auto-injector was programmed to inject 40 μL of the sample to the HPLC system for analysis. The linearity of the calibration curve was obtained by plotting the peak area ratio (area of Example 11 or area of Example 24/area of Example 4). Pharmacokinetic parameters were calculated by non-compartmental analysis of the plasma concentration-time profiles using Winnonlin® Professional version 8.01 software (Pharsight Corporation, Mountain View, CA). Oral bioavailability (F) was calculated by the ratio of the dose-corrected area under the plasma drug concentration-time curve (AUClast) between oral administration and intravenous injection.

[2] = read-out: % max. rel. efficacy, Table 2, relative to GW4064, top conc. 3.3 μM, one experiment in duplicate
[3] = Table 4, 5 concentrations, 3-fold dilution from 3.3 μM (GW4064: 10 conc. from 10 μM), one experiment in duplicate, NA = inactive at 3.3 μM
[4] = read-out: % max. rel. efficacy, Table 4, relative to GW4064, top conc. 3.3 μM, one experiment in duplicate
[5] = rat, intravenous Example 11, 5 mg/kg

| Structure (SMILES) | EC50 (FXR; [3]) [nM] | Emax (FXR; [4]) [%] | further results |
| --- | --- | --- | --- |
| COC(=O)/C=C/c1cccc(N(Cc2ccc(-c3ccc(N(C)C)cc3)c(CO)c2)C(=O)C2CCCCC2)c1 [Example 1, (E)-3-(3-(cyclohexanecarbonyl-(4′-dimethylamino-2-hydroxymethylbiphenyl-4-ylmethyl)amino)phenyl)acrylic acid methyl ester] |  |  | Emax (FXR; [2]): 1% |
| COCc1cc(CN(C(=O)C2CCCCC2)c2cccc(/C=C/C(=O)OC)c2)ccc1-c1ccc(N(C)C)cc1 [Example 2, (E)-3-(3-(cyclohexanecarbonyl-(4′-dimethylamino-2-methoxymethylbiphenyl-4-ylmethyl)amino)phenyl)acrylic acid methyl ester] |  |  | EC50 (FXR): > 10000 nM; Emax (FXR; [2]): 5% |
| COC(=O)/C=C/c1cccc(N(Cc2ccc(-c3ccc(N(C)C)cc3)c(C3OCCO3)c2)C(=O)C2CCCCC2)c1 [Example 3, (E)-3-(3-(cyclohexanecarbonyl-(4′-dimethylamino-2-[1,3]dioxolan-2-ylbiphenyl-4-ylmethyl)amino)phenyl)acrylic acid methyl ester] |  |  | Emax (FXR; [2]): 3% |
| COC(=O)/C=C/c1cccc(N(Cc2ccc(-c3ccc(N(C)C)cc3F)c(C#N)c2)C(=O)C2CCCCC2)c1 [Example 6, (E)-3-(3-((2-cyano-4′-dimethylamino-2′-fluorobiphenyl-4-ylmethyl)cyclohexanecarbonylamino)phenyl)acrylic Acid Methyl Ester] | 900 | 42 |  |
| COC(=O)/C=C/c1cccc(N(Cc2ccc(-c3ccc(N(C)C)cc3Cl)c(C#N)c2)C(=O)C2CCCCC2)c1 [Example 7, (E)-3-(3-((2′-chloro-2-cyano-4′-dimethylaminobiphenyl-4-ylmethyl)cyclohexane-carbonylamino)phenyl)acrylic acid methyl ester] | 1200 | 21 |  |
| COC(=O)/C=C/c1cccc(N(Cc2ccc(-c3ccc(N(C)C)cc3C#N)c(C#N)c2)C(=O)C2CCCCC2)c1 [Example 8, (E)-3-(3-(cyclohexanecarbonyl-(2,2′-dicyano-4′-dimethylaminobiphenyl-4-ylmethyl)-amino)phenyl)acrylic acid methyl ester] | 1600 | 10 |  |
| CCOC(=O)/C=C/c1cccc(N(Cc2ccc(-c3ccc(N(C)C)cc3)c(C#N)c2)C(=O)C2CCCCC2)c1 [Example 9, (E)-3-(3-((2-cyano-4′-dimethylaminobiphenyl-4-ylmethyl)cyclohexanecarbonylamino)phenyl)acrylic acid ethyl ester] | 1200 | 40 |  |
| COC(=O)/C=C/c1cc(F)cc(N(Cc2ccc(-c3ccc(N(C)C)cc3)c(C#N)c2)C(=O)C2CCCCC2)c1 [Example 11, (E)-3-(3-((2-cyano-4′-dimethylaminobiphenyl-4-ylmethyl)cyclohexanecarbonylamino)-5-fluorophenyl)acrylic Acid Methyl Ester] | 900 | 56 | % max. rel. efficacy (FXR; Table 5, relative to GW4064, mean ± SEM of two or three independent experiments in duplicate): 53 ± 3^c* %; Emax (FXR; read-out: % max. rel. efficacy, Table 5, relative to GW4064, mean ± SEM of two or three independent experiments in duplicate): 53 ± 3%; bioavailability ([1]; male, Sprague-Dawley, plasma, rat, oral 80 mg/kg vs intravenous 5 mg/kg, dose-corrected AUClast ratio, read-out: F (oral bioavailability)): 4%; AUC(0-t) ([1]; male, Sprague-Dawley, rat plasma, oral dose of Example 11, 80 mg/kg in corn oil): 1500 ± 600 ng·h/mL; detected in plasma until (time after administration) [1, 5]: 20 min; metabolism after intravenous administration [1, 5]: rapidly metabolized to the corresponding carboxylic acid, Example 24; detected after (time after oral administration) ([1]; rat, oral Example 11, 80 mg/kg): 5 h |
| CCOC(=O)/C=C/c1cc(F)cc(N(Cc2ccc(-c3ccc(N(C)C)cc3)c(C#N)c2)C(=O)C2CCCCC2)c1 [Example 12, (E)-3-(3-((2-cyano-4′-dimethylaminobiphenyl-4-ylmethyl)cyclohexanecarbonylamino)-5-fluorophenyl)acrylic acid ethyl ester] | 1000 | 47 |  |
| CC(C)OC(=O)/C=C/c1cc(F)cc(N(Cc2ccc(-c3ccc(N(C)C)cc3)c(C#N)c2)C(=O)C2CCCCC2)c1 [Example 13, (E)-3-(3-((2-cyano-4′-dimethylaminobiphenyl-4-ylmethyl)cyclohexanecarbonylamino)-5-fluorophenyl)acrylic acid isopropyl ester] | 800 | 20 |  |
| COC(=O)/C=C/c1cc(N(Cc2ccc(-c3ccc(N(C)C)cc3)c(C#N)c2)C(=O)C2CCCCC2)ccc1F [Example 14] | 1500 | 23 |  |
| CCOC(=O)/C=C/c1cc(N(Cc2ccc(-c3ccc(N(C)C)cc3)c(C#N)c2)C(=O)C2CCCCC2)ccc1F [Example 15] | 1300 | 23 |  |
| COC(=O)/C=C/c1cccc(N(Cc2ccc(-c3ccc(N(C)C)cc3)c(C#N)c2)C(=O)C2CCCCC2)c1F [Example 17, (E)-3-(3-((2-cyano-4′-dimethylaminobiphenyl-4-ylmethyl)cyclohexanecarbonylamino)-2-fluorophenyl)acrylic acid methyl ester] | 1300 | 19 |  |
| CC(C)OC(=O)/C=C/c1cccc(N(Cc2ccc(-c3ccc(N(C)C)cc3)c(C#N)c2)C(=O)C2CCCCC2)c1F [Example 19, (E)-3-(3-((2-cyano-4′-dimethylaminobiphenyl-4-ylmethyl)cyclohexanecarbonylamino)-2-fluorophenyl)acrylic acid isopropyl ester] |  | 42 |  |
| COC(=O)/C=C/c1ccc(F)c(N(Cc2ccc(-c3ccc(N(C)C)cc3)c(C#N)c2)C(=O)C2CCCCC2)c1 [Example 20, (E)-3-(3-((2-cyano-4′-dimethylaminobiphenyl-4-ylmethyl)cyclohexanecarbonylamino)-4-fluorophenyl)acrylic acid methyl ester] | 1500 | 15 |  |
| CCOC(=O)/C=C/c1ccc(F)c(N(Cc2ccc(-c3ccc(N(C)C)cc3)c(C#N)c2)C(=O)C2CCCCC2)c1 [Example 21, (E)-3-(3-((2-cyano-4′-dimethylaminobiphenyl-4-ylmethyl)cyclohexanecarbonylamino)-4-fluorophenyl)acrylic acid ethyl ester] | 1600 | 9 |  |
| CC(C)OC(=O)/C=C/c1ccc(F)c(N(Cc2ccc(-c3ccc(N(C)C)cc3)c(C#N)c2)C(=O)C2CCCCC2)c1 [Example 22, (E)-3-(3-((2-cyano-4′-dimethylaminobiphenyl-4-ylmethyl)cyclohexanecarbonylamino)-4-fluorophenyl)acrylic acid isopropyl ester] |  | 3 |  |
| CN(C)c1ccc(-c2ccc(CN(C(=O)C3CCCCC3)c3cccc(/C=C/C(=O)OC4CC4)c3)cc2C#N)cc1 [Example 23, (E)-3-(3-((2-cyano-4′-dimethylaminobiphenyl-4-ylmethyl)cyclohexanecarbonylamino)phenyl)acrylic Acid Cyclopropyl Ester] | 900 | 46 |  |
